Legend:
HSV-1 = experiment: Plaque forming assay, Hep-2 cell monolayers infected with HSV-1; assay type: cell-based; conditions: Hep-2 cells, 100 μM
Experimental: The ability of a virus to infect cells can be assessed using a plaque assay. In a plaque assay, an infected cell culture is grown under a nutrient gel. During culturing, the virus being study infects cells and replicates. However, the spread of virus to other cells is limited by the overlaying nutrient gel. As such, replicated virus released from one infected cell can only infect neighboring cells. The spread of virus amongst neighboring cells creates a plaque that can be visualized by staining. By counting the visible plaques, the amount of plaque forming units (pfu) per mL can be determined. If cells treated with a compound display a reduced amount of pfu compared to cells not treated with the compound after being infected with same amount of viral particles, then the reduction in pfu would have to be result of the ability of the […] virus. Thus, the ability of a compound in accordance with General Formula 1, including derivatives in accordance with any of General Formulae 1-1 to 1-20, to inhibit the ability of HSV-1 to proliferate can be assessed with a plaque assay.
Hep-2 cell monolayers were placed in well plates. The plated Hep-2 cells were treated with either DSMO as a control, 100 μM SD-29 or 100 μM SD29-12. A total of 6 well plates were prepared for each treatment condition. To each treated well plate an HSV-1 infecting solution comprising 1 mL of supernatants containing of the same amount of serially diluted HSV-1 particles were added. Accordingly, the treated well plates were infected with infection solutions containing the same amount of HSV-1 particles. After adsorption for 2 hours, the medium was removed and the treated cells were washed twice with serum-free DMEM and overlaid with phenol-free DMEM containing 5% FCS, 0.5% low-melting point agarose (GIBCO), and 1% penicillin-streptomycin. After either 0, 6, 12, 24 hours, the plaques present in each treated well plate were stained red and the number of plaques presented counted. Table 1 reports the mean plaque forming unit (pfu) determined for each treated well plate after averaging the number of pfu from the different plates receiving the same treatment.

[1] = test system: HIV1 modified pNL4-3.Luc.R-E-virus; experiment: Western assay of HIV p24 gag expression in infected CEM T cells; assay type: cell-based; conditions: Western assay with HIV p24 antibody, FIG. 4
Source text: The ability of a compound in accordance with General Formula 1, including derivatives in accordance with General Formulae 1-1 to 1-20, or pharmaceutically acceptable salts thereof, to inhibit the expression of at least a portion of a virus genome containing an IRES sequence can be also be determined by assessing the expression of a native protein within a viral genome. In some embodiments, the ability of a compound or pharmaceutically acceptable salt to inhibit expression of native protein can be assessed by using antibodies for a protein normally expressed from the virus genome. For example, HIV p24 gag is a protein normally expressed by HIV1 that can be detected using the HIVI p24 antibody. Accordingly, compounds in accordance with General Formula 1, including derivatives in accordance with any of General Formulae 1-1 to 1-20, or pharmaceutically acceptable salts thereof, can be assessed for the ability to inhibit proliferation of the HIV1 by infecting CEM T cells with the HIV1 modified pNL4-3.Luc.R-E-virus and assessing the expression of HIV p24 gag with the HIV p24 antibody. […]
A compound or salt may be wrongly classified as capable of inhibiting expression of at least a portion of a virus genome containing an IRES sequence due to unequal loading of proteins within an assay. […] In some embodiments, equivalent protein loading can be assessed by ponceau staining. […]

Row | Structure (SMILES) | melting point [°C] | mean plaque forming unit (pfu) (HSV-1; 0 hpi) | mean plaque forming unit (pfu) (HSV-1; 6 hpi) | mean plaque forming unit (pfu) (HSV-1; 12 hpi) | mean plaque forming unit (pfu) (HSV-1; 24 hpi) | expression of HIV p24 gag [1]
1 | Nn1c(-c2cccc(F)c2)n[nH]c1=S [5e, 4-amino-5-(3-fluorophenyl)-2,4-dihydro-3H-1,2,4-triazole-3-thione] | 220 |  |  |  |  | 
2 | COc1ccc(-c2nnc(SCC(=O)O)n2N)cc1 [SD-29-12] |  | 0 | 380 | 3600 | 2600000 | does not inhibit expression of HIV p24 gag
